Data on 1 substance can be found in US4804743A, “Proline-containing renin inhibitors” (Warner-Lambert Copmany, priority 1987, dated 1989).

This assay deals with T1, renin (Homo sapiens, UniProt P00797).
T1 sequence (P00797 67-406): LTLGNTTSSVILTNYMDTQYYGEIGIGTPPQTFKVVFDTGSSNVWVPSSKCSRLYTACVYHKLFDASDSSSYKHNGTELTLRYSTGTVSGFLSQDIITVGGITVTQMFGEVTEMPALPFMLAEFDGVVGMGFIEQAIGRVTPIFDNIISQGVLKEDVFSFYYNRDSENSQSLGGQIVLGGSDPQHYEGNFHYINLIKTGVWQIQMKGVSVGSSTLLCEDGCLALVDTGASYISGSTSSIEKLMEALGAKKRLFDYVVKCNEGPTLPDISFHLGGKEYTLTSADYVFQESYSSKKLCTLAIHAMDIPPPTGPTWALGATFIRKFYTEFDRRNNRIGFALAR
The experiment in a line: in vitro renin inhibitory activity, radioimmunoassay for angiotensin I. Type of assay: biochemical. The following applies: renin incubated two hours at 37° with substrate angiotensinogen; angiotensin I measured by radioimmunoassay. As for the experimental part: The effectiveness of the aforementioned compounds is determined by a test for in vitro renin inhibitory activity. This activity is determined by a standard radioimmunoassay for angiotensin I. In this assay the enzyme, renin, incubated for two hours at 37° in the presence of a substrate, angiotensinogen, generates the product, angiotensin I. Test compounds are added to the incubation mixture. Relative activity is reported as the IC50, which is the molar concentration of test compound causing a 50% inhibition of the renin activity.

“BOC-PHE-LEU-STA-GLN-PRO-OCH3 [Example 8]” registered an IC50 of 1100 nM.

In general, IC50 refers to the point on the concentration scale where inhibition reaches its midpoint. Read a high IC50 as weaker potency in that assay.
